Laboratory results published in patent US5817624A, “Permeation enhancer compositions for increased absorption of therapeutic proteins through the colonic membrane” (Alza Corporation, priority 1995, dated 1998).
Several values for one entry are separate records, joined by “and”; a condition that tells them apart may be missing. Equal entries are not always repeated. Where two headings read alike, the source gives them in different places.

Tested on: fasted anesthetized Sprague-Dawley male rats
Settings: for % Maximum Decrease 0-60 mins (blood glucose): sodium bovine insulin 0.5 mg/kg, 1 mL peanut oil, intracolonic bolus, n = 3-4
Text: An animal model commonly known as the "intracolonic ligated model" was employed for testing formulations. Surgical preparation of a fasted anesthetized 0.3-0.5 kg Sprague-Dawley male rats proceeded as follows. A segment of proximal colon was isolated and the colon was flushed of fecal materials. The segment was ligated at both ends while a catheter was placed in the lumen and exteriorized above the skin for delivery of test formulation. The colonic contents were flushed out and the colon was returned to the abdomen of the animal. Depending on the experimental set up, the test formulation was added after the segment was filled with 1 mL/kg of 20 mM sodium phosphate buffer, pH 7.4, to more accurately simulate the actual colon environment in a clinical situation.
Rats were allowed to equilibrate for approximately 1 hour after surgical preparation and prior to exposure to each test formulation. Immediately prior to test solution administration, a 0.3-0.5 mL blood sample was taken from the jugular catheter of the rats and analyzed for glucose content using an Ames GlucometerM® blood glucose meter utilizing Glucostix® reagent strips. Withdrawn blood was replaced with an equal volume of heparinized Ringer's. Sodium bovine insulin was formulated to be delivered at a dose of 0.5 mg/kg body weight. Initially, all candidate enhancers were tested at a concentration of 300 mM. […] The solutes (enhancer and insulin) were suspended in 1 mL peanut oil (except where noted) and mixed using a vortex mixer. Test solutions were vortexed immediately prior to aspiration into individual delivery syringes.
After determination of baseline blood glucose levels, the test solution was administered as an intracolonic bolus and delivered at 1 ml/kg adjusting for either the 100 μl or 250 μl dead volume of the colonic catheter. Blood samples obtained from the jugular catheter were taken at 0, 5, 15, 30, 60, 120, 180 and 240 minutes and analyzed for blood glucose concentration. At the end of the 4 hour test period, the rats were euthanized with an overdose of pentobarbital. Colonic segments from each rat were excised and opened longitudinally along the anti-mesenteric border. Each segment was observed macroscopically for irritation and any abnormality noted. The excised colons were placed on graph paper and measured to approximate colonic surface area. Blood glucose dynamics are reported as the percent change from initial blood glucose levels.
Rats were prepared as described in EXAMPLE 1. […] The open symbols denote the formulations delivered in oil whereas the closed symbol denotes the formulation without oil.

SMILES | % Maximum Decrease 0-60 mins (blood glucose) (enhancer 300 mM) | also measured
O=C([O-])c1cc(O)ccc1O.[Na+] [2,5-Dihydroxybenzoic acid, Na salt] | 1% and 9% | 
Nc1ccc(C(=O)[O-])c(O)c1.[Na+] [4-Amino salicylic acid, Na salt] | 10% | 
Nc1ccc(O)c(C(=O)[O-])c1.[Na+] [5-Amino salicylic acid, Na salt] | 13% | % Maximum Decrease 0-60 mins (blood glucose) (enhancer 100 mM): 13%
COc1ccc(O)c(C(=O)[O-])c1.[Na+] [5-Methoxysalicylic acid, Na salt] | 9% | 
O=C([O-])c1ccccc1.[Na+] [Benzoic acid, Na salt] | 0% | 
O=C([O-])c1ccccc1O.[Na+] [Na Salicylate, sodium salicylate] |  | rats that died (enhancer 250 mM with insulin 0.5 mg/kg in 1/8 mL peanut oil): 2/4; effect on blood glucose levels over a 4 hour period (enhancer 300 mM formulated without insulin): no effect; decrease in fasting blood glucose levels from pre-exposure levels (significance) (enhancer 300 mM with sodium bovine insulin (0.5 mg/kg) and peanut oil): significant decrease; rats that died (enhancer 600 mM with insulin 0.5 mg/kg and peanut oil, death due to low blood glucose levels): 4/4
[Cl-].[Na+] [NaCl] | 2% | 
